From US20220362381A1, “REMOTELY TRIGGERED THERAPY” (Bambu Vault LLC, priority 2019, published 2022)

How the values were obtained:
[1] = likelihood of association with drug induced liver injury; cited from earlier work
[2] = Stabilization effect of surfactant on tetrakis aminium dye during emulsification (Epolight 1117 retention); format: physicochemical; conditions: retention in particles after emulsification; surfactant in aqueous phase as in label
Method: IR absorbing agent weight ratio=4.4:1). The organic phase (polymer and IR absorbing agents dissolved in dichloromethane) was injected directly into the aqueous phase (PVA solution with SDS surfactant) at the tip of the Turrax's roto-stator (i.e. directly into the flow being sheared by the roto-stator). The shear mixing at 8000 RPM was continued for 30 minutes. The resulting mixture was decanted into an open-mouth container and stirred magnetically for 16 hours. A solid suspension of particles containing IR absorbing agent was obtained. The solid suspension was centrifuged at 5000 RPM for 30 minutes and the particles were collected. The collected particles were washed with distilled water by resuspending the particles into distilled water and centrifuging as before to collect the particles. This washing process was repeated three times to remove residual PVA. The resulting MMA/BMA copolymer particles containing IR absorbing agent were air-dried. In the emulsion method of encapsulation, a surfactant is necessary to help keep the emulsion stable. While Aerosol® TR-70 (sodium bis(tridecyl) sulfosuccinate) could be used as an emulsifier to prepare polymer particles encapsulating Epolight™ 1117 tetrakis aminium dye, TR-70 only provided limited stabilization effects on the tetrakis aminium dye. […]

[3] = Leaching testing of curcumin/Epolight IR 1117 B-805 particles with and without VTMS shell (FIG. 13); format: physicochemical; conditions: B-805 particles with VTMS shell vs. without shell

Compound | Likelihood Score [1] | other results
CC(C)C[C@H](NC(=O)CNC(=O)c1cc(Cl)ccc1Cl)B(O)O [Ixazomib] | E* | –
CO[C@@H]1[C@H](N(C)C(=O)c2ccccc2)C[C@H]2O[C@]1(C)n1c3ccccc3c3c4c(c5c6ccccc6n2c5c31)C(=O)NC4 [Midostaurin] | E* | –
COc1cc(N2CCC(N3CCN(C)CC3)CC2)ccc1Nc1ncc(Cl)c(Nc2ccccc2P(C)(C)=O)n1 [Brigatinib] | E* | –
COc1c(OCCCN2CCOCC2)ccc2c1N=C(NC(=O)c1cnc(N)nc1)N1CCN=C21 [Copanlisib] | E* | –
N#CC[C@H](C1CCCC1)n1cc(-c2ncnc3[nH]ccc23)cn1 [Ruxolitinib] | E* | –
NC(=O)c1cccc2cn(-c3ccc([C@@H]4CCCNC4)cc3)nc12 [Niraparib] | E* | –
CC(=O)c1c(C)c2cnc(Nc3ccc(N4CCNCC4)cn3)nc2n(C2CCCC2)c1=O [Palbociclib] | E* | –
CCOc1cc2ncc(C#N)c(Nc3ccc(OCc4ccccn4)c(Cl)c3)c2cc1NC(=O)/C=C/CN(C)C [Neratinib] | E* | –
CCCS(=O)(=O)Nc1ccc(F)c(C(=O)c2c[nH]c3ncc(-c4ccc(Cl)cc4)cc23)c1F [Vemurafenib] | E* | –
CC(C)(C)c1nc(-c2cccc(NS(=O)(=O)c3c(F)cccc3F)c2F)c(-c2ccnc(N)n2)s1 [Dabrafenib] | E* | –
C[C@H](Nc1ncnc2[nH]cnc12)c1cc2cccc(Cl)c2c(=O)n1-c1ccccc1 [Duvelisib] | E* | –
CCCCCCCCCCCCCOC(=O)CC(C(=O)OCCCCCCCCCCCCC)S(=O)(=O)O.[Na] (stereo not shown) [TR-70, sodium bis(tridecyl) sulfosuccinate] | – | % Epolight ™ 1117 Retention [2]: 50%
CC(C)(O)CNc1nc(Nc2ccnc(C(F)(F)F)c2)nc(-c2cccc(C(F)(F)F)n2)n1 [Enasidenib] | E* | –
COc1cc2ncnc(Nc3ccc(F)c(Cl)c3)c2cc1NC(=O)/C=C/CN1CCCCC1 [Dacomitinib] | E* | –
COC(=O)c1ccc2c(c1)NC(=O)/C2=C(\Nc1ccc(N(C)C(=O)CN2CCN(C)CC2)cc1)c1ccccc1 [Nintedanib] | E* | –
CCCCCCCCCCCCOS(=O)(=O)[O-].[Na+] [Sodium dodecyl sulfate, sodium dodecyl sulfate] | – | % Epolight ™ 1117 Retention [2]: 85-90%
Cn1ncnc1[C@H]1c2n[nH]c(=O)c3cc(F)cc(c23)N[C@@H]1c1ccc(F)cc1 [Talazoparib] | E* | –

Compound | Likelihood Score [1] | other results
CN1CC[C@@H](NC(=O)Nc2ccc(C#N)cc2)C[C@@H]1c1nc2ccccc2[nH]1 [Glasdegib] | E* | –
N#Cc1ccnc(N2C(=O)CC[C@H]2C(=O)N(c2cncc(F)c2)[C@H](C(=O)NC2CC(F)(F)C2)c2ccccc2Cl)c1 [Ivosidenib] | E* | –
CCN1CCN(Cc2ccc(Nc3ncc(F)c(-c4cc(F)c5nc(C)n(C(C)C)c5c4)n3)nc2)CC1 [Abemaciclib] | E* | –
Cc1c(C(=O)Nc2ccc(N3C[C@@H](C)O[C@@H](C)C3)nc2)cccc1-c1ccc(OC(F)(F)F)cc1 [Sonidegib] | E* | –
COC(=O)N[C@@H](C)CNc1nccc(-c2cn(C(C)C)nc2-c2cc(Cl)cc(NS(C)(=O)=O)c2F)n1 [Encorafenib] | E* | –
COc1cc(Nc2c(C#N)cnc3cc(OCCCN4CCN(C)CC4)c(OC)cc23)c(Cl)cc1Cl [Bosutinib] | E* | –
COc1cc(Nc2ncc(F)c(Nc3ccc4c(n3)N(COP(=O)(O)O)C(=O)C(C)(C)O4)n2)cc(OC)c1OC [Fostamatinib] | E* | –
Cn1cnc2c(F)c(Nc3ccc(Br)cc3F)c(C(=O)NOCCO)cc21 [Binimetinib] | E* | –
CCc1nc(C(N)=O)c(Nc2ccc(N3CCC(N4CCN(C)CC4)CC3)c(OC)c2)nc1NC1CCOCC1 [Gilteritinib] | E* | –
Cc1ccc(C(=O)Nc2ccc(CN3CCN(C)CC3)c(C(F)(F)F)c2)cc1C#Cc1cnc2cccnn12 [Ponatinib] | E* | –
O=C(Nc1cnn2ccc(N3CCC[C@@H]3c3cc(F)ccc3F)nc12)N1CC[C@H](O)C1 [Larotrectinib] | E* | –
CNCc1ccc(-c2[nH]c3cc(F)cc4c3c2CCNC4=O)cc1 [Rucaparib] | D* | –
COc1cc2nccc(Oc3ccc(NC(=O)C4(C(=O)Nc5ccc(F)cc5)CC4)cc3)c2cc1OC [Cabozantinib] | E* | –
C[C@H]1Oc2cc(cnc2N)-c2c(nn(C)c2C#N)CN(C)C(=O)c2ccc(F)cc21 [Lorlatinib] | E* | –
CCS(=O)(=O)N1CC(CC#N)(n2cc(-c3ncnc4[nH]ccc34)cn2)C1 [Baricitinib] | E* | –
COc1cc2c(Nc3ccc(Br)cc3F)ncnc2cc1OCC1CCN(C)CC1 [Vandetanib] | E* | –
COc1cc(/C=C/C(=O)CC(=O)/C=C/c2ccc(O)c(OC)c2)ccc1O [Curcumin, curcumin] | – | reduction of leaching by the VTMS shell [3]: 70%
